Data reported in ChEMBL document CHEMBL1201862, “PubChem BioAssay data set” (2004).
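48-hour exposure; five concentrations; linearly interpolated endpoints. The concentration for 50% growth inhibition is given as GI50.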 Calls of active or inactive are those of the source. Rule as the data show it: active = GI50 up to about 1.1 µM and inactive = higher.

Columns and labels:
Test in all cases: DTP human tumour cell line panel, 48 h
T47D = tested on: T47D
MOLT-4 = tested on: MOLT-4
UACC-62 = tested on: UACC-62
SK-MEL-28 = tested on: SK-MEL-28
MDA-MB-231 = tested on: MDA-MB-231
IGROV-1 = tested on: IGROV-1
HCT-116 = tested on: HCT-116
EKVX = tested on: EKVX
KM12 = tested on: KM12
A549 = tested on: A549
SK-OV-3 = tested on: SK-OV-3
SF-295 = tested on: SF-295
SF-539 = tested on: SF-539
HL-60 = tested on: HL-60
NCI-H23 = tested on: NCI-H23
SW-620 = tested on: SW-620
786-0 = tested on: 786-0
M14 = tested on: M14
DU-145 = tested on: DU-145
SR = tested on: SR
HT-29 = tested on: HT-29
NCI/ADR-RES = tested on: NCI/ADR-RES
SNB-19 = tested on: SNB-19
NCI-H226 = tested on: NCI-H226
SNB-75 = tested on: SNB-75
NCI-H460 = tested on: NCI-H460
HOP-62 = tested on: HOP-62
HCT-15 = tested on: HCT-15
COLO 205 = tested on: COLO 205
RXF 393 = tested on: RXF 393
SK-MEL-2 = tested on: SK-MEL-2
SK-MEL-5 = tested on: SK-MEL-5
Hs-578T = tested on: Hs-578T
SN12C = tested on: SN12C
MDA-MB-435 = tested on: MDA-MB-435
OVCAR-4 = tested on: OVCAR-4
NCI-H522 = tested on: NCI-H522
ACHN = tested on: ACHN
K562 = tested on: K562
UACC-257 = tested on: UACC-257
U-251 = tested on: U-251
UO-31 = tested on: UO-31
BT-549 = tested on: BT-549
Malme-3M = tested on: Malme-3M
MDA-N = tested on: MDA-N
TK-10 = tested on: TK-10
SF-268 = tested on: SF-268
OVCAR-3 = tested on: OVCAR-3
RPMI-8226 = tested on: RPMI-8226
CCRF-CEM = tested on: CCRF-CEM
PC-3 = tested on: PC-3
HOP-92 = tested on: HOP-92
LOX IMVI = tested on: LOX IMVI
MCF7 = tested on: MCF7
OVCAR-5 = tested on: OVCAR-5
CAKI-1 = tested on: CAKI-1
A498 = tested on: A498
OVCAR-8 = tested on: OVCAR-8
HCC 2998 = tested on: HCC 2998

**Q.** How did the GI50 (T47D) turn out when Cc1ccc(-c2nc(-c3nccc4ccccc34)oc2-c2ccccc2)cc1 was run?
**A.** 68.2 µM (inactive)

**Q.** And the GI50 (MOLT-4)?
**A.** 25.2 µM (inactive)

**Q.** What about the GI50 (UACC-62) of the same compound?
**A.** 46.6 µM (inactive)

**Q.** And the GI50 (SK-MEL-28)?
**A.** > 100 µM (inactive)

**Q.** And the GI50 (MDA-MB-231)?
**A.** > 100 µM (inactive)

**Q.** What about the GI50 (IGROV-1) of the same compound?
**A.** > 100 µM (inactive)

**Q.** What about the GI50 (HCT-116) of the same compound?
**A.** 20.2 µM (inactive)

**Q.** And the GI50 (EKVX)?
**A.** 20.6 µM (inactive)

**Q.** What about the GI50 (KM12) of the same compound?
**A.** 43.1 µM (inactive)

**Q.** What about the GI50 (A549) of the same compound?
**A.** 40.6 µM (inactive)

**Q.** What about the GI50 (SK-OV-3) of the same compound?
**A.** 68.9 µM (inactive)

**Q.** What about the GI50 (SF-295) of the same compound?
**A.** 68.4 µM (inactive)

**Q.** And the GI50 (SF-539)?
**A.** 46 µM (inactive)

**Q.** What about the GI50 (HL-60) of the same compound?
**A.** > 100 µM (inactive)

**Q.** And the GI50 (NCI-H23)?
**A.** > 100 µM (inactive)

**Q.** What about the GI50 (SW-620) of the same compound?
**A.** 88.3 µM (inactive)

**Q.** What about the GI50 (786-0) of the same compound?
**A.** 26.6 µM (inactive)

**Q.** And the GI50 (M14)?
**A.** 24.9 µM (inactive)

**Q.** And the GI50 (DU-145)?
**A.** 63.2 µM (inactive)

**Q.** What about the GI50 (SR) of the same compound?
**A.** 25.8 µM (inactive)

**Q.** And the GI50 (HT-29)?
**A.** 5.64 µM (inactive)

**Q.** What about the GI50 (NCI/ADR-RES) of the same compound?
**A.** 98.2 µM (inactive)

**Q.** And the GI50 (SNB-19)?
**A.** > 100 µM (inactive)

**Q.** And the GI50 (NCI-H226)?
**A.** > 100 µM (inactive)

**Q.** What about the GI50 (SNB-75) of the same compound?
**A.** 31.6 µM (inactive)

**Q.** What about the GI50 (NCI-H460) of the same compound?
**A.** 26.7 µM (inactive)

**Q.** And the GI50 (HOP-62)?
**A.** > 100 µM (inactive)

**Q.** And the GI50 (HCT-15)?
**A.** 22.9 µM

**Q.** And the GI50 (COLO 205)?
**A.** 42.9 µM (inactive)

**Q.** And the GI50 (RXF 393)?
**A.** 33.4 µM (inactive)

**Q.** What about the GI50 (SK-MEL-2) of the same compound?
**A.** 51.9 µM (inactive)

**Q.** And the GI50 (SK-MEL-5)?
**A.** 28.1 µM (inactive)

**Q.** What about the GI50 (Hs-578T) of the same compound?
**A.** 75 µM (inactive)

**Q.** And the GI50 (SN12C)?
**A.** 24.8 µM (inactive)

**Q.** And the GI50 (MDA-MB-435)?
**A.** 64.9 µM (inactive)

**Q.** And the GI50 (OVCAR-4)?
**A.** > 100 µM (inactive)

**Q.** And the GI50 (NCI-H522)?
**A.** 43 µM (inactive)

**Q.** And the GI50 (ACHN)?
**A.** 92.9 µM (inactive)

**Q.** And the GI50 (K562)?
**A.** 55.1 µM (inactive)

**Q.** And the GI50 (UACC-257)?
**A.** 85.3 µM (inactive)

**Q.** And the GI50 (U-251)?
**A.** 72.9 µM (inactive)

**Q.** What about the GI50 (UO-31) of the same compound?
**A.** 95.9 µM (inactive)

**Q.** What about the GI50 (BT-549) of the same compound?
**A.** > 100 µM (inactive)

**Q.** What about the GI50 (Malme-3M) of the same compound?
**A.** 96.4 µM (inactive)

**Q.** And the GI50 (MDA-N)?
**A.** 38.7 µM (inactive)

**Q.** What about the GI50 (TK-10) of the same compound?
**A.** 66.8 µM (inactive)

**Q.** And the GI50 (SF-268)?
**A.** 73.5 µM (inactive)

**Q.** What about the GI50 (OVCAR-3) of the same compound?
**A.** 56.1 µM (inactive)

**Q.** What about the GI50 (RPMI-8226) of the same compound?
**A.** 38.4 µM (inactive)

**Q.** And the GI50 (CCRF-CEM)?
**A.** 84.1 µM (inactive)

**Q.** And the GI50 (PC-3)?
**A.** > 100 µM (inactive)

**Q.** And the GI50 (HOP-92)?
**A.** 30.3 µM (inactive)

**Q.** And the GI50 (LOX IMVI)?
**A.** 20.3 µM (inactive)

**Q.** What about the GI50 (MCF7) of the same compound?
**A.** 27.9 µM (inactive)

**Q.** And the GI50 (OVCAR-5)?
**A.** > 100 µM (inactive)

**Q.** What about the GI50 (CAKI-1) of the same compound?
**A.** 43.3 µM (inactive)

**Q.** What about the GI50 (A498) of the same compound?
**A.** 30.5 µM (inactive)

**Q.** And the GI50 (OVCAR-8)?
**A.** 79.1 µM (inactive)

**Q.** How did the GI50 (T47D) turn out when Cc1ccc(NC(=O)CC(=O)N2N=C(N3CCCCC3)CC2c2ccccc2)cc1 (stereo not drawn) was run?
**A.** > 100 µM (inactive)

**Q.** And the GI50 (MOLT-4)?
**A.** > 100 µM (inactive)

**Q.** And the GI50 (UACC-62)?
**A.** > 100 µM (inactive)

**Q.** And the GI50 (SK-MEL-28)?
**A.** > 100 µM (inactive)

**Q.** And the GI50 (MDA-MB-231)?
**A.** > 100 µM (inactive)

**Q.** And the GI50 (IGROV-1)?
**A.** > 100 µM (inactive)

**Q.** What about the GI50 (HCT-116) of the same compound?
**A.** > 100 µM (inactive)

**Q.** And the GI50 (EKVX)?
**A.** > 100 µM (inactive)

**Q.** What about the GI50 (KM12) of the same compound?
**A.** > 100 µM (inactive)

**Q.** What about the GI50 (A549) of the same compound?
**A.** > 100 µM (inactive)

**Q.** What about the GI50 (SF-295) of the same compound?
**A.** > 100 µM (inactive)

**Q.** What about the GI50 (HL-60) of the same compound?
**A.** > 100 µM (inactive)

**Q.** What about the GI50 (NCI-H23) of the same compound?
**A.** > 100 µM (inactive)

**Q.** And the GI50 (SW-620)?
**A.** > 100 µM (inactive)

**Q.** What about the GI50 (HCC 2998) of the same compound?
**A.** > 100 µM (inactive)

**Q.** And the GI50 (786-0)?
**A.** > 100 µM (inactive)

**Q.** What about the GI50 (M14) of the same compound?
**A.** > 100 µM (inactive)

**Q.** And the GI50 (DU-145)?
**A.** > 100 µM (inactive)

**Q.** What about the GI50 (SR) of the same compound?
**A.** > 100 µM (inactive)

**Q.** And the GI50 (HT-29)?
**A.** > 100 µM (inactive)

**Q.** And the GI50 (NCI/ADR-RES)?
**A.** > 100 µM (inactive)

**Q.** What about the GI50 (SNB-19) of the same compound?
**A.** > 100 µM (inactive)

**Q.** And the GI50 (NCI-H226)?
**A.** > 100 µM (inactive)

**Q.** What about the GI50 (SNB-75) of the same compound?
**A.** > 100 µM (inactive)

**Q.** And the GI50 (NCI-H460)?
**A.** > 100 µM (inactive)

**Q.** What about the GI50 (HOP-62) of the same compound?
**A.** > 100 µM (inactive)

**Q.** And the GI50 (HCT-15)?
**A.** > 100 µM

**Q.** And the GI50 (COLO 205)?
**A.** > 100 µM (inactive)

**Q.** What about the GI50 (RXF 393) of the same compound?
**A.** > 100 µM (inactive)

**Q.** What about the GI50 (SK-MEL-2) of the same compound?
**A.** > 100 µM (inactive)

**Q.** And the GI50 (SK-MEL-5)?
**A.** > 100 µM (inactive)

**Q.** What about the GI50 (Hs-578T) of the same compound?
**A.** > 100 µM (inactive)

**Q.** And the GI50 (SN12C)?
**A.** > 100 µM (inactive)

**Q.** And the GI50 (MDA-MB-435)?
**A.** > 100 µM (inactive)

**Q.** What about the GI50 (OVCAR-4) of the same compound?
**A.** > 100 µM (inactive)

**Q.** What about the GI50 (NCI-H522) of the same compound?
**A.** > 100 µM (inactive)

**Q.** What about the GI50 (ACHN) of the same compound?
**A.** > 100 µM (inactive)

**Q.** What about the GI50 (UACC-257) of the same compound?
**A.** > 100 µM (inactive)

**Q.** And the GI50 (U-251)?
**A.** > 100 µM (inactive)

**Q.** And the GI50 (UO-31)?
**A.** > 100 µM (inactive)

**Q.** And the GI50 (BT-549)?
**A.** > 100 µM (inactive)

**Q.** What about the GI50 (Malme-3M) of the same compound?
**A.** > 100 µM (inactive)

**Q.** What about the GI50 (MDA-N) of the same compound?
**A.** > 100 µM (inactive)

**Q.** What about the GI50 (TK-10) of the same compound?
**A.** > 100 µM (inactive)

**Q.** And the GI50 (SF-268)?
**A.** > 100 µM (inactive)

**Q.** What about the GI50 (OVCAR-3) of the same compound?
**A.** > 100 µM (inactive)

**Q.** And the GI50 (CCRF-CEM)?
**A.** > 100 µM (inactive)

**Q.** What about the GI50 (PC-3) of the same compound?
**A.** > 100 µM (inactive)

**Q.** And the GI50 (HOP-92)?
**A.** > 100 µM (inactive)

**Q.** And the GI50 (LOX IMVI)?
**A.** > 100 µM (inactive)

**Q.** And the GI50 (MCF7)?
**A.** > 100 µM (inactive)

**Q.** What about the GI50 (OVCAR-5) of the same compound?
**A.** > 100 µM (inactive)

**Q.** What about the GI50 (CAKI-1) of the same compound?
**A.** > 100 µM (inactive)

**Q.** And the GI50 (A498)?
**A.** > 100 µM (inactive)

**Q.** What about the GI50 (OVCAR-8) of the same compound?
**A.** > 100 µM (inactive)
